Values of other authors, collected in patent publication US20060155301A1, “Methods and devices usable in eye surgery” (priority 2002, published 2006).
Read-outs that look alike come from different tables or passages of the source.

Assays:
[1] = system: lens epithelial cells; conditions: in vitro
[2] = system: lens epithelial cells; conditions: EDTA solution in irrigation solution, cadaver eyes
[3] = system: lens epithelial cells; conditions: 2% trypsin solution in irrigation solution, cadaver eyes

Row | Molecule | inhibiting lens epithelial cells proliferation [1] | also measured
1 | O=c1[nH]cc(F)c(=O)[nH]1 [5 fluorouracil] | effective | 
2 | O=C(O)CN(CCN(CC(=O)O)CC(=O)O)CC(=O)O [EDTA, Ethylenediamine tetraacetic acid] |  | separation of lens epithelial cells [2]: the anterior lens epithelial cells could be separated
3 | COc1cccc2c1C(=O)c1c(O)c3c(c(O)c1C2=O)C[C@@](O)(C(C)=O)C[C@@H]3O[C@H]1C[C@H](N)[C@H](O)[C@H](C)O1 [daunomycin/daunorubicin] | effective | 
4 | CC(=O)O[C@H]1C(=O)[C@@]2(C)[C@H]([C@H](OC(=O)c3ccccc3)[C@]3(O)C[C@H](OC(=O)[C@H](O)[C@@H](NC(=O)c4ccccc4)c4ccccc4)C(C)=C1C3(C)C)[C@]1(OC(C)=O)CO[C@@H]1C[C@@H]2O [taxol] | effective | 
5 | COc1cc2c(c(OC)c1OC)-c1ccc(OC)c(=O)cc1[C@@H](NC(C)=O)CC2 [colchicines] | effective | 
6 | CO[C@@]12[C@H](COC(N)=O)C3=C(C(=O)C(C)=C(N)C3=O)N1C[C@@H]1N[C@@H]12 [mitomycin] | effective | 
7 | COc1cccc2c1C(=O)c1c(O)c3c(c(O)c1C2=O)C[C@@](O)(C(=O)CO)C[C@@H]3O[C@H]1C[C@H](N)[C@H](O)[C@H](C)O1 [doxorubicin] | effective | 
8 | CN(Cc1cnc2nc(N)nc(N)c2n1)c1ccc(C(=O)N[C@@H](CCC(=O)O)C(=O)O)cc1 [methotrexate] | effective | 
9 | trypsin (protein, UniProt P00760 24-246, looked up, enzyme evaluated for separation of lens epithelial cells) Serine protease 1: IVGGYTCGANTVPYQVSLNSGYHFCGGSLINSQWVVSAAHCYKSGIQVRLGEDNINVVEGNEQFISASKSIVHPSYNSNTLNNDIMLIKLKSAASLNSRVASISLPTSCASAGTQCLISGWGNTKSSGTSYPDVLKCLKAPILSDSSCKSAYPGQITSNMFCAGYLEGGKDSCQGDSGGPVVCSGKLQGIVSWGSGCAQKNKPGVYTKVCNYVSWIKQTIASN |  | damage to the zonules [3]: the zonules were damaged; separation of lens epithelial cells [3]: lens epithelial cells were stripped in places
